The values below come from US20140162942A1, “INHIBITION OF CYP3A DRUG METABOLISM” (priority 2010, published 2014).

Holding throughout (type): in vitro ADME
One data set deals with T1, CYP2C8 (Homo sapiens, UniProt P10632).
T1 construct: Pooled human liver microsomes (from sixteen individuals) were used as the source of enzymes; tissue XenoTech, LLC; host or cells: human liver microsomes, pool of sixteen donors
T1 sequence (P10632 1-490): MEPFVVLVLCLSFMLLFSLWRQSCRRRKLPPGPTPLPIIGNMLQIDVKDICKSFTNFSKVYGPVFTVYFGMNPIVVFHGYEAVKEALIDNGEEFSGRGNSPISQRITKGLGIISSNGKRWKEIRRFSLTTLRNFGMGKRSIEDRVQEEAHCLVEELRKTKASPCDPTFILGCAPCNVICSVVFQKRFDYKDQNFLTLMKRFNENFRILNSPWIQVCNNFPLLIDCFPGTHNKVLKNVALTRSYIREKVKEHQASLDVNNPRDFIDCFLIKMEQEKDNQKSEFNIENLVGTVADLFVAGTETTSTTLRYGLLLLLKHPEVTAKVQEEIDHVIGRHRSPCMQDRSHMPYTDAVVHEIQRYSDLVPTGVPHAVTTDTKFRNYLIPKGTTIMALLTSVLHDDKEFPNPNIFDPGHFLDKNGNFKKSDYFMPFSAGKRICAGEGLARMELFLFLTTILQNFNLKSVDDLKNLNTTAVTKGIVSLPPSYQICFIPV
Description: CYP2C8 inhibition, amodiaquine N-dealkylation in human liver microsomes. The following applies: for Potential for Time-Dep. Inhibition: comparison with and without 30-minute pre-incubation. The procedure: (§1) The basis for many of the following incubation conditions is described in the following references: Madan, et al., 2002,^(1) Huang, 2004,^(3) Ogilvie, et al., 2006,^(6) Pearce, et al., 1996,^(7) Tucker, et al., 2001,^(4) and Walsky and Obach, 2004.^(5) In general, incubations were conducted at approximately 37° C. in 400-μL incubation mixtures (target pH 7.4) containing high purity water, potassium phosphate buffer (50 mM), MgCl2 (3 mM), EDTA (1 mM), an NADPH-generating system [always the mixture of the following: NADP (1 mM), glucose-6-phosphate (5 mM), glucose-6-phosphate dehydrogenase (1 Unit/mL)], and marker substrate at the final concentrations indicated. Pooled human liver microsomes (from sixteen individuals) were used as the source of enzymes (Section 1.3.1.2). The concentrations of marker substrates were based on the Km and Vmax data that were determined previously (data not shown).
(§2) Due to the possibility that boceprevir may bind to microsomal protein or lipids, an attempt was made to design these experiments such that, in as many cases as possible, the microsomal protein, incubation time, and phosphate buffer concentration were 0.1 mg/mL, 5 minutes and 50 mM, respectively, for assays performed with human liver microsomes (Table 1). […] Since it is not imperative that the concentration of marker substrates be exactly equal to Km, the marker substrate concentrations were rounded up or down, as applicable, to simplify the experimental design (data not shown). […] Thus, the final incubation concentration of phenacetin was 60 μM (Table 1).
(§3) The ability of boceprevir to inhibit the CYP enzymes listed in Section 1.2.1 was investigated with a pool of sixteen individual human liver microsomal samples at the concentrations indicated in Table 1. Aliquots of the stock and/or working solutions of boceprevir were manually added to buffer mixtures containing the components described in Section 1.3.21. Incubation mixtures were prepared in bulk to obviate the need for directly pipetting very small volumes (i.e., 1 μL or less). Incubations containing no boceprevir (0 μM) contained the vehicle used to dissolve boceprevir (i.e., 1% methanol).
(§4) The Tecan liquid handling system conducted all remaining incubation steps, with the exception of the centrifugation. Aliquots of the buffer mixtures were then automatically added to 96-well plates at the appropriate locations in duplicate. Aliquots of a substrate working solution were added to the 96-well plates, prior to initiating reactions, to give the final concentrations indicated in Table 1. Reactions were initiated with the addition of an aliquot of an NADPH-generating system. Reactions were automatically terminated at approximately 5 minutes, by the addition of the appropriate internal standard (Table 5) and stop reagent; acetonitrile. Precipitated protein was removed by centrifugation (920 g for 10 minutes at 10° C.). Standards and quality control samples were similarly prepared with the addition of authentic metabolite standards.
To examine its ability to act as a time-dependent inhibitor, boceprevir (at the same concentrations used to evaluate direct inhibition) was pre-incubated at 37±1° C., in duplicate, with human liver microsomes and an NADPH-generating system for approximately 30 minutes. This pre-incubation allowed for the generation of intermediates that could inhibit human CYP enzymes. The pre-incubations were initiated with the addition of an aliquot of an NADPH-generating system. […]
A general note: Liver microsomes are a subcellular fraction often used to study metabolism.

The next data set has as its target T2, CYP2C19 (Homo sapiens, UniProt P33261).
T2 construct: Pooled human liver microsomes (from sixteen individuals) were used as the source of enzymes; tissue XenoTech, LLC; host or cells: human liver microsomes, pool of sixteen donors
In words: CYP2C19 inhibition, S-mephenytoin 4′-hydroxylation in human liver microsomes. The following applies: for Potential for Time-Dep. Inhibition: comparison with and without 30-minute pre-incubation; for inhibition at 5 min, 100 µM: human, pH 7.4, probe S-mephenytoin (4′-hydroxylation). The procedure: as §1, §2, §3, §4
(§5) To examine its ability to act as a time-dependent inhibitor, boceprevir (at the same concentrations used to evaluate direct inhibition) was pre-incubated at 37±1° C., in duplicate, with human liver microsomes and an NADPH-generating system for approximately 30 minutes. This pre-incubation allowed for the generation of intermediates that could inhibit human CYP enzymes. The pre-incubations were initiated with the addition of an aliquot of an NADPH-generating system. […] Reactions were automatically terminated, at approximately 5 minutes, by the addition of the appropriate internal standard (Table 5) and stop reagent; acetonitrile. Precipitated protein was removed by centrifugation (920 g for 10 minutes at 10° C.). Incubations containing no boceprevir (0 μM) and incubations that contained boceprevir but were not pre-incubated, served as negative controls.

A further data set addresses T3, CYP2A6 (Homo sapiens, UniProt P11509).
T3 construct: Pooled human liver microsomes (from sixteen individuals) were used as the source of enzymes; tissue XenoTech, LLC; host or cells: human liver microsomes, pool of sixteen donors
T3 sequence (P11509 1-494): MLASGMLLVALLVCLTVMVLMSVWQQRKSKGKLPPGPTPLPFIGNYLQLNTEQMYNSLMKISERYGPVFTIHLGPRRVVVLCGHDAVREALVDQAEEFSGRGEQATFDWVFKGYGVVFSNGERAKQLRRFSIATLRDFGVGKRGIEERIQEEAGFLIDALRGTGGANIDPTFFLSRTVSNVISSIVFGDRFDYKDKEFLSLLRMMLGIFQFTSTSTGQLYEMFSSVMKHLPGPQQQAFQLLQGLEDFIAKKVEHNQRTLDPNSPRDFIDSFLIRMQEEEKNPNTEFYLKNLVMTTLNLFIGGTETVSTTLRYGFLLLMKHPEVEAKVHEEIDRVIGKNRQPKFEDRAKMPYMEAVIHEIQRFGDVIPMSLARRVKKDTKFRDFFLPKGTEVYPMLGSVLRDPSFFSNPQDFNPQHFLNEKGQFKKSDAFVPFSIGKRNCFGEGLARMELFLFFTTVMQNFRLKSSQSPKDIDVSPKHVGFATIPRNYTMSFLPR
In words: CYP2A6 inhibition, coumarin 7-hydroxylation in human liver microsomes. The following applies: for Potential for Time-Dep. Inhibition: comparison with and without 30-minute pre-incubation; for inhibition at 5 min, 100 µM: human, pH 7.4, probe coumarin (7-hydroxylation). How it is done: as §1, §2, §3, §4, §5

Where [1] appears, read: direct inhibition, zero-minute pre-incubation, pooled human liver microsomes.
The mark [2] stands for this setting: time-dependent inhibition, 30-minute pre-incubation.
The mark [3] stands for this setting: pooled human liver microsomes, direct inhibition, zero-minute pre-incubation, read-out: Max. Inhib. at 100 μM.
[4] abbreviates: pooled human liver microsomes, time-dependent inhibition, 30-minute pre-incubation, read-out: Maximum Inhibition at 100 μM.

The structures appear in SMILES notation. Where two headings read alike, the source gives them in different places.

T2 sequence (P33261 whole entry): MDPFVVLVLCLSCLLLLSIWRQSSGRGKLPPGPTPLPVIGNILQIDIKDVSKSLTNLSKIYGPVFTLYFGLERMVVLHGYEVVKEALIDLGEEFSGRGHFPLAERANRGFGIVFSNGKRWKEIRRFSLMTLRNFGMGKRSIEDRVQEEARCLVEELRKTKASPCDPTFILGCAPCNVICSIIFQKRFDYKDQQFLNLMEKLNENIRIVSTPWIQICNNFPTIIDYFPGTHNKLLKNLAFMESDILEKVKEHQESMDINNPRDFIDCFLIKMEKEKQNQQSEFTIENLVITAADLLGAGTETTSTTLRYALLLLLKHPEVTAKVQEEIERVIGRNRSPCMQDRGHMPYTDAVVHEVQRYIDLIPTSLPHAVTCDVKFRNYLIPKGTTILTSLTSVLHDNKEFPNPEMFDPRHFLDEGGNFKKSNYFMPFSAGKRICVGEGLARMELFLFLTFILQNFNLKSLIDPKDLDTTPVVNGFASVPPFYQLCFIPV

For the compound `CC(C)(C)NC(=O)NC(C(=O)N1CC2C([C@H]1C(=O)NC(CC1CCC1)C(=O)C(N)=O)C2(C)C)C(C)(C)C` (stereo partly drawn) [Boceprevir, (1R,2S,5S)—N-[(2Ξ)-4-amino-1-cyclobutyl-3,4-dioxobutan-2-yl]-3-{(2S)-2-[(tert-butylcarbamoyl)amino]-3,3-dimethylbutanoyl}-6,6-dimethyl-3-azabicyclo[3.1.0]hexane-2-carboxamide], the “Potential for Time-Dep. Inhibition” value on CYP2C8 is given as “little or no”; at CYP2C8 (listed as boceprevir) it was “no discernable time-dependent inhibition”; at CYP2C19 it was “little or no”; at CYP2C19 (listed as boceprevir), “no discernable time-dependent inhibition”; on CYP2A6, “little or no”; on CYP2A6 (listed as boceprevir), “no discernable time-dependent inhibition”. The IC50 on CYP2C8 (setting [1]), against CYP2C8 (setting [2]), against CYP2C19 (setting [1]), at CYP2C19 (setting [2]), on CYP2A6 (setting [1]) and on CYP2A6 (setting [2]) was greater than 100 µM throughout. Moreover, the inhibition at 5 min, 100 µM at CYP2C8 (human, pooled human liver microsomes, pH 7.4, probe amodiaquine (N-dealkylation), direct inhibition, zero-minute pre-incubation, read-out: Max. Inhib. at 100 μM) was 25%; at CYP2C19 (setting [3]) it was 25%; at CYP2C19 (setting [4]), 14%; at CYP2A6 (setting [3]) it was 20%; on CYP2A6 (setting [4]), 7.8%.
